Laboratory results: the supplement of paper PMC10307832

Columns and labels:
Assay in all cases: relative viability (nuclei count vs DMSO), 5 days (fraction); higher = more cells survive
[1] = tested on: HCC-366
Summary of the method: (§1)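 Values are medians from duplicate plates. Each reflects relative viability, defined as the nuclei count of treated wells over that of vehicle wells. Lung cancer cell lines in 1536-well plates were pin-tool dosed one day after seeding with one drug alone or with a fixed anchor-drug dose plus five library-drug doses (not always all listed) in √10 steps, then fixed, stained and imaged at 4× after 5 days.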

[2] = tested on: NCI-H1355
Summary of the method: as §1

[3] = tested on: NCI-H2228
Summary of the method: as §1

[4] = tested on: NCI-H1993
Summary of the method: as §1

[5] = tested on: LOU-NH91
Summary of the method: as §1

[6] = tested on: UMC-11
Summary of the method: as §1

[7] = tested on: NCI-H1793
Summary of the method: as §1

[8] = tested on: HCC-44
Summary of the method: as §1

[9] = tested on: LCLC-103H
Summary of the method: as §1

[10] = tested on: RERF-LC-KJ
Summary of the method: as §1

[11] = tested on: EPLC-272H
Summary of the method: as §1

[12] = tested on: SK-MES-1
Summary of the method: as §1

[13] = tested on: HCC-827
Summary of the method: as §1

[14] = tested on: NCI-H1755
Summary of the method: as §1

[15] = tested on: HARA
Summary of the method: as §1

[16] = tested on: NCI-H596
Summary of the method: as §1

[17] = tested on: PC-3 [JPC-3]
Summary of the method: as §1

[18] = tested on: NCI-H1975
Summary of the method: as §1

[19] = tested on: NCI-H1651
Summary of the method: as §1

[20] = tested on: NCI-H838
Summary of the method: as §1

[21] = tested on: SW 1573
Summary of the method: as §1

[22] = tested on: HCC-78
Summary of the method: as §1

[23] = tested on: NCI-H520
Summary of the method: as §1

[24] = tested on: COR-L 105
Summary of the method: as §1

[25] = tested on: NCI-H2170
Summary of the method: as §1

## Nc1cccc2c1CN(C1CCC(=O)NC1=O)C2=O (configuration not stated) [Lenalidomide] + C[C@]1(O)C[C@@H](c2nc(-c3ccc4ccc(-c5ccccc5)nc4c3)c3c(N)nccn32)C1 [Linsitinib] (partner 1 µM)
[1]; first compound 0.253 µM
  relative viability: 0.689
[1]; first compound 0.8 µM
  relative viability: 0.548
[1]; first compound 2.53 µM
  relative viability: 0.601
[1]; first compound 8 µM
  relative viability: 0.424
[2]; first compound 0.253 µM
  relative viability: 0.827
[2]; first compound 0.8 µM
  relative viability: 0.748
[2]; first compound 2.53 µM
  relative viability: 0.864
[2]; first compound 8 µM
  relative viability: 0.53
[3]; first compound 0.253 µM
  relative viability: 0.598
[3]; first compound 0.8 µM
  relative viability: 0.774
[3]; first compound 2.53 µM
  relative viability: 0.802
[3]; first compound 8 µM
  relative viability: 0.639
[4]; first compound 0.253 µM
  relative viability: 0.708
[4]; first compound 0.8 µM
  relative viability: 0.706
[4]; first compound 2.53 µM
  relative viability: 0.73
[4]; first compound 8 µM
  relative viability: 0.708
[5]; first compound 0.253 µM
  relative viability: 0.912
[5]; first compound 0.8 µM
  relative viability: 0.977
[5]; first compound 2.53 µM
  relative viability: 0.922
[5]; first compound 8 µM
  relative viability: 0.847
[6]; first compound 0.253 µM
  relative viability: 1.03
[6]; first compound 0.8 µM
  relative viability: 0.927
[6]; first compound 2.53 µM
  relative viability: 1.08
[6]; first compound 8 µM
  relative viability: 1.04
[7]; first compound 0.253 µM
  relative viability: 1.02
[7]; first compound 0.8 µM
  relative viability: 0.728
[7]; first compound 2.53 µM
  relative viability: 1.13
[7]; first compound 8 µM
  relative viability: 0.512
[8]; first compound 0.253 µM
  relative viability: 0.648
[8]; first compound 0.8 µM
  relative viability: 0.537
[8]; first compound 2.53 µM
  relative viability: 0.738
[8]; first compound 8 µM
  relative viability: 0.522
[9]; first compound 0.253 µM
  relative viability: 1.11
[9]; first compound 0.8 µM
  relative viability: 1.09
[9]; first compound 2.53 µM
  relative viability: 1.05
[9]; first compound 8 µM
  relative viability: 0.86
[10]; first compound 0.253 µM
  relative viability: 0.905
[10]; first compound 0.8 µM
  relative viability: 0.79
[10]; first compound 2.53 µM
  relative viability: 0.892
[10]; first compound 8 µM
  relative viability: 0.943
[11]; first compound 0.253 µM
  relative viability: 1.24
[11]; first compound 2.53 µM
  relative viability: 1.11
[11]; first compound 8 µM
  relative viability: 0.843
[12]; first compound 0.253 µM
  relative viability: 1.05
[12]; first compound 0.8 µM
  relative viability: 1.03
[12]; first compound 2.53 µM
  relative viability: 1.13
[12]; first compound 8 µM
  relative viability: 0.979
[13]; first compound 0.253 µM
  relative viability: 0.939
[13]; first compound 0.8 µM
  relative viability: 0.944
[13]; first compound 2.53 µM
  relative viability: 0.995
[13]; first compound 8 µM
  relative viability: 1.07
[14]; first compound 0.253 µM
  relative viability: 0.968
[14]; first compound 0.8 µM
  relative viability: 1.01
[14]; first compound 2.53 µM
  relative viability: 0.983
[14]; first compound 8 µM
  relative viability: 0.897
[15]; first compound 0.253 µM
  relative viability: 0.992
[15]; first compound 0.8 µM
  relative viability: 0.91
[15]; first compound 2.53 µM
  relative viability: 1.18
[15]; first compound 8 µM
  relative viability: 0.906
[16]; first compound 0.253 µM
  relative viability: 1.07
[16]; first compound 0.8 µM
  relative viability: 1.03
[16]; first compound 2.53 µM
  relative viability: 1.23
[16]; first compound 8 µM
  relative viability: 0.969
[17]; first compound 0.253 µM
  relative viability: 0.969
[17]; first compound 0.8 µM
  relative viability: 0.923
[17]; first compound 2.53 µM
  relative viability: 1
[17]; first compound 8 µM
  relative viability: 1.09
[18]; first compound 0.253 µM
  relative viability: 1.15
[18]; first compound 0.8 µM
  relative viability: 1
[18]; first compound 2.53 µM
  relative viability: 1.2
[18]; first compound 8 µM
  relative viability: 1.12
[19]; first compound 0.253 µM
  relative viability: 0.995
[19]; first compound 0.8 µM
  relative viability: 0.968
[19]; first compound 2.53 µM
  relative viability: 1.18
[19]; first compound 8 µM
  relative viability: 0.973
[20]; first compound 0.253 µM
  relative viability: 1.02
[20]; first compound 0.8 µM
  relative viability: 0.98
[20]; first compound 2.53 µM
  relative viability: 1.13
[20]; first compound 8 µM
  relative viability: 0.968
[21]; first compound 0.253 µM
  relative viability: 0.772
[21]; first compound 0.8 µM
  relative viability: 0.866
[21]; first compound 2.53 µM
  relative viability: 0.792
[21]; first compound 8 µM
  relative viability: 0.791
[22]; first compound 0.253 µM
  relative viability: 0.55
[22]; first compound 0.8 µM
  relative viability: 0.466
[22]; first compound 2.53 µM
  relative viability: 0.605
[22]; first compound 8 µM
  relative viability: 0.383
[23]; first compound 0.253 µM
  relative viability: 0.974
[23]; first compound 0.8 µM
  relative viability: 1.15
[23]; first compound 2.53 µM
  relative viability: 1.12
[23]; first compound 8 µM
  relative viability: 0.96
[24]; first compound 0.253 µM
  relative viability: 0.839
[24]; first compound 0.8 µM
  relative viability: 0.774
[24]; first compound 2.53 µM
  relative viability: 0.738
[24]; first compound 8 µM
  relative viability: 1.12

## Nc1cccc2c1CN(C1CCC(=O)NC1=O)C2=O (configuration not stated) [Lenalidomide] + Cc1nc(Nc2ncc(C(=O)Nc3c(C)cccc3Cl)s2)cc(N2CCN(CCO)CC2)n1 [Dasatinib] (partner 0.075 µM)
[1]; first compound 0.253 µM
  relative viability: 0.661
[1]; first compound 0.8 µM
  relative viability: 0.622
[1]; first compound 2.53 µM
  relative viability: 0.752
[1]; first compound 8 µM
  relative viability: 0.334
[2]; first compound 0.253 µM
  relative viability: 0.701
[2]; first compound 2.53 µM
  relative viability: 0.744
[2]; first compound 8 µM
  relative viability: 0.403
[3]; first compound 0.253 µM
  relative viability: 0.444
[3]; first compound 0.8 µM
  relative viability: 0.58
[3]; first compound 2.53 µM
  relative viability: 0.562
[3]; first compound 8 µM
  relative viability: 0.405
[4]; first compound 0.253 µM
  relative viability: 0.498
[4]; first compound 0.8 µM
  relative viability: 0.583
[4]; first compound 2.53 µM
  relative viability: 0.609
[4]; first compound 8 µM
  relative viability: 0.443
[5]; first compound 0.253 µM
  relative viability: 0.558
[5]; first compound 0.8 µM
  relative viability: 0.435
[5]; first compound 2.53 µM
  relative viability: 0.555
[5]; first compound 8 µM
  relative viability: 0.456
[6]; first compound 0.253 µM
  relative viability: 0.452
[6]; first compound 0.8 µM
  relative viability: 0.456
[6]; first compound 2.53 µM
  relative viability: 0.542
[6]; first compound 8 µM
  relative viability: 0.43
[7]; first compound 0.253 µM
  relative viability: 0.349
[7]; first compound 2.53 µM
  relative viability: 0.412
[7]; first compound 8 µM
  relative viability: 0.212
[9]; first compound 0.253 µM
  relative viability: 0.442
[9]; first compound 0.8 µM
  relative viability: 0.325
[9]; first compound 2.53 µM
  relative viability: 0.453
[9]; first compound 8 µM
  relative viability: 0.296
[10]; first compound 0.253 µM
  relative viability: 0.777
[10]; first compound 0.8 µM
  relative viability: 0.746
[10]; first compound 2.53 µM
  relative viability: 0.828
[10]; first compound 8 µM
  relative viability: 0.793
[25]; first compound 0.253 µM
  relative viability: 0.547
[25]; first compound 0.8 µM
  relative viability: 0.47
[25]; first compound 2.53 µM
  relative viability: 0.571
[25]; first compound 8 µM
  relative viability: 0.454
[11]; first compound 0.253 µM
  relative viability: 0.379
[11]; first compound 0.8 µM
  relative viability: 0.358
[11]; first compound 2.53 µM
  relative viability: 0.321
[11]; first compound 8 µM
  relative viability: 0.235
[12]; first compound 0.253 µM
  relative viability: 0.421
[12]; first compound 0.8 µM
  relative viability: 0.422
[12]; first compound 2.53 µM
  relative viability: 0.499
[12]; first compound 8 µM
  relative viability: 0.413
[13]; first compound 0.253 µM
  relative viability: 0.291
[13]; first compound 0.8 µM
  relative viability: 0.416
[13]; first compound 2.53 µM
  relative viability: 0.341
[13]; first compound 8 µM
  relative viability: 0.312
[14]; first compound 0.253 µM
  relative viability: 0.404
[14]; first compound 0.8 µM
  relative viability: 0.216
[14]; first compound 2.53 µM
  relative viability: 0.428
[14]; first compound 8 µM
  relative viability: 0.33
[15]; first compound 0.253 µM
  relative viability: 0.3
[15]; first compound 2.53 µM
  relative viability: 0.293
[15]; first compound 8 µM
  relative viability: 0.287
[16]; first compound 0.253 µM
  relative viability: 0.644
[16]; first compound 2.53 µM
  relative viability: 0.655
[16]; first compound 8 µM
  relative viability: 0.505
[17]; first compound 0.253 µM
  relative viability: 1
[17]; first compound 0.8 µM
  relative viability: 0.901
[17]; first compound 2.53 µM
  relative viability: 1.08
[17]; first compound 8 µM
  relative viability: 1.04
[18]; first compound 0.253 µM
  relative viability: 0.406
[18]; first compound 0.8 µM
  relative viability: 0.287
[18]; first compound 2.53 µM
  relative viability: 0.486
[18]; first compound 8 µM
  relative viability: 0.366
[19]; first compound 0.253 µM
  relative viability: 0.386
[19]; first compound 0.8 µM
  relative viability: 0.419
[19]; first compound 2.53 µM
  relative viability: 0.617
[19]; first compound 8 µM
  relative viability: 0.375
[20]; first compound 0.253 µM
  relative viability: 0.368
[20]; first compound 0.8 µM
  relative viability: 0.301
[20]; first compound 2.53 µM
  relative viability: 0.302
[20]; first compound 8 µM
  relative viability: 0.252
[21]; first compound 0.253 µM
  relative viability: 0.637
[21]; first compound 0.8 µM
  relative viability: 0.547
[21]; first compound 2.53 µM
  relative viability: 0.455
[21]; first compound 8 µM
  relative viability: 0.392
[22]; first compound 0.253 µM
  relative viability: 0.52
[22]; first compound 0.8 µM
  relative viability: 0.371
[22]; first compound 2.53 µM
  relative viability: 0.465
[22]; first compound 8 µM
  relative viability: 0.308
[23]; first compound 0.253 µM
  relative viability: 0.188
[23]; first compound 0.8 µM
  relative viability: 0.192
[23]; first compound 2.53 µM
  relative viability: 0.235
[23]; first compound 8 µM
  relative viability: 0.159
[24]; first compound 0.253 µM
  relative viability: 0.433
[24]; first compound 0.8 µM
  relative viability: 0.331
[24]; first compound 2.53 µM
  relative viability: 0.427
[24]; first compound 8 µM
  relative viability: 0.371
